Measurements taken from ChEMBL document CHEMBL1130727, “Benzothiopyran-4-one based reversible inhibitors of the human cytomegalovirus (HCMV) protease” (Bioorg Med Chem Lett, 1998).

biological target: T1, Capsid scaffolding protein (Human cytomegalovirus (strain AD169) (HHV-5) (Human herpesvirus 5), UniProt P16753); assay: Inhibitory activity against human cytomegalovirus (HCMV) protease was evaluated; parameters: species or system Human betaherpesvirus 5
T1 sequence (P16753 whole entry): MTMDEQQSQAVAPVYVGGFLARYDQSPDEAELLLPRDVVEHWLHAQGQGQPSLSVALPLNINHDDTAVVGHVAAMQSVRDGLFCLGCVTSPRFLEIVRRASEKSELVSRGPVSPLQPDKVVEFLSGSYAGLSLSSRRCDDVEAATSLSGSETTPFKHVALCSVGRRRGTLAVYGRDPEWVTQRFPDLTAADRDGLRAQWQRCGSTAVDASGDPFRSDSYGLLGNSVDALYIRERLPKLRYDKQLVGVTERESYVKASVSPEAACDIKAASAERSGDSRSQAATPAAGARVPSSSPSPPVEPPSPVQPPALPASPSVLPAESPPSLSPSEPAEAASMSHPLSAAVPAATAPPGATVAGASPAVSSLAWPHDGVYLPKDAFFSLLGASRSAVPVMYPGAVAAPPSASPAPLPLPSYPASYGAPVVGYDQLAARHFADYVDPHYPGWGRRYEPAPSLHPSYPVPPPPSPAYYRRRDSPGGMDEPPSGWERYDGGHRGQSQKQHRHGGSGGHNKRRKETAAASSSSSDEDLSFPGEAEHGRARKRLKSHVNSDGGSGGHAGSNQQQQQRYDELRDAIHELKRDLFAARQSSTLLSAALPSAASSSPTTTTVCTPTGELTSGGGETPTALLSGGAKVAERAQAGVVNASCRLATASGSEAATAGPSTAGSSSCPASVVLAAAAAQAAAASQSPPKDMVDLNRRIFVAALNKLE

Compared with `O=C1C=C(c2ccncc2)S(=O)(=O)c2ccccc21`, `O=C1C=C(c2cccnc2)S(=O)(=O)c2ccccc21` is 2-fold higher in IC50: 100 nM for the first, 200 nM for the second.

Compared with `CC(C)c1cccc2c1S(=O)(=O)C(c1ccc([N+](=O)[O-])cc1)=CC2=O`, `Cc1cccc2c1S(=O)(=O)C(c1ccc([N+](=O)[O-])cc1)=CC2=O` is 1.6-fold lower in IC50: 180 nM for the first, 110 nM for the second.

Compared with `Cc1cccc2c1C(=O)C=C(c1ccc([N+](=O)[O-])cc1)S2(=O)=O`, `O=C1C=C(c2ccc([N+](=O)[O-])cc2)S(=O)(=O)c2ccccc21` is 1.7-fold lower in IC50: 100 nM for the first, 60 nM for the second. The second is the more potent here.

Compared with `O=C1C=C(c2cccs2)S(=O)(=O)c2ccccc21`, `O=C1C=C(c2ccsc2)S(=O)(=O)c2ccccc21` is higher in IC50: 460 nM for the first, > 34000 nM for the second. The first is the more potent here.

`CS(=O)(=O)c1ccc(-c2cc(=O)c3ccccc3s2)cc1` and `O=c1cc(-c2ccccc2)sc2ccccc12` cannot be ordered by IC50: > 34000 nM for the first, > 34000 nM for the second.

Going from `O=C1C=C(c2ccccc2)S(=O)(=O)c2ccccc21` to `O=C1C=C(c2ccc(-c3ccccc3)cc2)S(=O)(=O)c2ccccc21`, the IC50 falls from 1500 nM to 60 nM (25-fold). The second is the more potent here.

`O=C1C=C(c2cc[n+]([O-])cc2)S(=O)(=O)c2ccccc21` and `O=C1C=C(c2ccc[n+]([O-])c2)S(=O)(=O)c2ccccc21` are the same in IC50: 600 nM for the first, 600 nM for the second.

Going from `O=c1cc(-c2ccccc2)[s+]([O-])c2ccccc12` (stereo not given) to `O=c1cc(-c2cccnc2)sc2ccccc12`, the IC50 rises from 10000 nM to > 34000 nM.

Compared with `CCCCCCCC1=CC(=O)c2ccccc2S1(=O)=O`, `CC(C)(C)C1=CC(=O)c2ccccc2S1(=O)=O` is higher in IC50: 1400 nM for the first, > 34000 nM for the second.

Going from `CS(=O)(=O)c1ccc(C2=CC(=O)c3ccccc3S2(=O)=O)cc1` to `CCOC(=O)c1ccc2c(c1)C(=O)C=C(c1ccc([N+](=O)[O-])cc1)S2(=O)=O`, the IC50 rises from 100 nM to 180 nM (1.8-fold). The first is the more potent here.
